These are literature values, as cited in patent US20110118134A1, “Biomarkers for insulin sensitizer drug response” (IKFE GmbH, priority 2008, published 2011).

The data set relates to MIF. The note with it: six week treatment, eight non-diabetic patients with obesity.

Turning to `CN(C)C(=N)N=C(N)N` [metformin], the “Plasma concentration of MIF and transcription of MIF mRNA in mononuclear cells” value is recorded as “could be reduced”.
